This passage reports inhibition, Activity and IC50 results from ChEMBL document CHEMBL3745672, “Novel compounds reducing IRS-1 serine phosphorylation for treatment of diabetes” (Bioorg Med Chem Lett, 2016).

The target of experiment [1] is RAC-alpha serine/threonine-protein kinase (Homo sapiens) (UniProt P31749). Nature of the experiment: Inhibition of AKT1 (unknown origin) at 1 uM.
Experiment [2] concerns the target Platelet-derived growth factor receptor beta (Homo sapiens) (UniProt P09619). Nature of the experiment: Inhibition of PDGFRbeta (unknown origin) at 1 uM.
Experiment [3] deals with T1, Mitogen-activated protein kinase 8 (Homo sapiens, UniProt P45983). Nature of the experiment: Inhibition of JNK1 (unknown origin) expressed in HEK293 cells assessed as anisomycin-induced JNK phosphorylation at 10 uM incubated for 30 mins by Western blot analysis relative to anisomycin. More on the design: scale not given: the % may be the effect or the level left. The experiment is classed as cell-based.

The target in experiment [4] is Mitogen-activated protein kinase 8 (Rattus norvegicus) (UniProt P49185). As to the kind of experiment: Inhibition of albumin-conjugated palmitate-induced JNK1/2 phosphorylation assessed as JNK phosphorylation level in rat RINm5F cells incubated for 8 hrs. Format: cell-based.
Experiment [5] deals with Hepatocyte growth factor receptor (Homo sapiens) (UniProt P08581). As to the kind of experiment: Inhibition of cMET (unknown origin) at 1 uM.
For experiment [6], the target named is Vascular endothelial growth factor receptor 2 (Homo sapiens) (UniProt P35968). Nature of the experiment: Inhibition of VEGFR2 (unknown origin) at 1 uM.
In experiment [7] the target is Serine/threonine-protein kinase PAK 1 (Homo sapiens) (UniProt Q13153). As to the kind of experiment: Inhibition of PAK1 (unknown origin) at 1 uM.
The subject of a further experiment is HEK293. As to the kind of experiment: Cytotoxicity against HEK293 after 24 hrs by CellTiter-Glo luminescent cell viability assay. Format: cell-based. Conditions: Homo sapiens, HEK293, 24 h.
The target of experiment [8] is T1, Mitogen-activated protein kinase 8. As to the kind of experiment: Inhibition of JNK1 (unknown origin) expressed in HEK293 cells assessed as anisomycin-induced c-Jun phosphorylation at 10 uM incubated for 30 mins by Western blot analysis relative to anisomycin. Format: cell-based. More on the design: scale not given: the % may be the effect or the level left.
Experiment [9] addresses Serine/threonine-protein kinase PLK3 (Homo sapiens) (UniProt Q9H4B4). Nature of the experiment: Inhibition of PLK3 (unknown origin) at 10 uM.
Experiment [10] has as its target Protein kinase C alpha type (Homo sapiens) (UniProt P17252). Nature of the experiment: Inhibition of PKCalpha (unknown origin) at 10 uM.
The target in experiment [11] is Hepatocyte growth factor receptor (Homo sapiens) (UniProt P08581). Nature of the experiment: Inhibition of cMET (unknown origin) at 10 uM.
Experiment [12] concerns the target Receptor-type tyrosine-protein kinase FLT3 (Homo sapiens) (UniProt P36888). As to the kind of experiment: Inhibition of FLT3 (unknown origin) at 10 uM.
Experiment [13] has as its target Platelet-derived growth factor receptor beta (Homo sapiens) (UniProt P09619). As to the kind of experiment: Inhibition of PDGFRbeta (unknown origin) at 10 uM.
Experiment [14] concerns the target Tyrosine-protein kinase SYK (Homo sapiens) (UniProt P43405). As to the kind of experiment: Inhibition of SYK (unknown origin) at 10 uM.
Experiment [15] concerns the target Vascular endothelial growth factor receptor 2 (Homo sapiens) (UniProt P35968). Nature of the experiment: Inhibition of VEGFR2 (unknown origin) at 10 uM.
The target in experiment [16] is T2, Interleukin-1 receptor-associated kinase 4 (Homo sapiens) (UniProt Q9NWZ3).
T2 sequence (whole entry): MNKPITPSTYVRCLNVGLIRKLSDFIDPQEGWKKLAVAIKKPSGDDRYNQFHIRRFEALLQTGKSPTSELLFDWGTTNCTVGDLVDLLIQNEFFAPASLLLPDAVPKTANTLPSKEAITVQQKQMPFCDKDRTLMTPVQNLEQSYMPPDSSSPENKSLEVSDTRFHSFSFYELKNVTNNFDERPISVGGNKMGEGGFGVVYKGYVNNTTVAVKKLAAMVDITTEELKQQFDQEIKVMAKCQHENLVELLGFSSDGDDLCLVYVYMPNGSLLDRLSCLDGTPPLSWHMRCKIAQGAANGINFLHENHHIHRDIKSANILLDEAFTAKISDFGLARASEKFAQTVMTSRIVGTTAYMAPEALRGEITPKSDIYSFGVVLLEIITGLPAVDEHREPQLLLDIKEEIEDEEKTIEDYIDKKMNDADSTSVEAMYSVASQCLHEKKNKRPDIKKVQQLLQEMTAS
As to the kind of experiment: Inhibition of IRAK4 (unknown origin) at 10 uM.

Experiment [17] concerns the target Tyrosine-protein kinase CSK (Homo sapiens) (UniProt P41240). As to the kind of experiment: Inhibition of CSK (unknown origin) at 10 uM.
In experiment [18] the target is Proto-oncogene tyrosine-protein kinase Src (Homo sapiens) (UniProt P12931). Nature of the experiment: Inhibition of SRC (unknown origin) at 10 uM.
Experiment [19] addresses Insulin receptor (Homo sapiens) (UniProt P06213). As to the kind of experiment: Inhibition of INSR (unknown origin) at 10 uM.
Experiment [20] deals with Tyrosine-protein kinase receptor UFO (Homo sapiens) (UniProt P30530). Nature of the experiment: Inhibition of AXL (unknown origin) at 10 uM.
In experiment [21] the target is Mast/stem cell growth factor receptor Kit (Homo sapiens) (UniProt P10721). As to the kind of experiment: Inhibition of cKIT (unknown origin) at 10 uM.
Experiment [22] addresses Serine/threonine-protein kinase B-raf (Homo sapiens) (UniProt P15056). As to the kind of experiment: Inhibition of B-RAF (unknown origin) at 10 uM.
Experiment [23] concerns the target Mitogen-activated protein kinase 3 (Homo sapiens) (UniProt P27361). Nature of the experiment: Inhibition of ERK1 (unknown origin) at 10 uM.
Experiment [24] deals with Angiopoietin-1 receptor (Homo sapiens) (UniProt Q02763). As to the kind of experiment: Inhibition of TIE2 (unknown origin) at 10 uM.
In experiment [25] the target is Fibroblast growth factor receptor 3 (Homo sapiens) (UniProt P22607). Nature of the experiment: Inhibition of FGFR3 (unknown origin) at 10 uM.
Experiment [26] concerns the target Serine/threonine-protein kinase pim-1 (Homo sapiens) (UniProt P11309). As to the kind of experiment: Inhibition of PIM1 (unknown origin) at 10 uM.
In experiment [27] the target is Rho-associated protein kinase 2 (Homo sapiens) (UniProt O75116). As to the kind of experiment: Inhibition of ROCK2 (unknown origin) at 10 uM.
In experiment [28] the target is CDK2/Cyclin A2 (Homo sapiens) (UniProt P24941+P20248). As to the kind of experiment: Inhibition of CDK2/CyclinA (unknown origin) at 10 uM. The experiment is classed as protein-complex assay.
In experiment [29] the target is Serine/threonine-protein kinase mTOR (Homo sapiens) (UniProt P42345). As to the kind of experiment: Inhibition of mTOR (unknown origin) at 10 uM.
The target in experiment [30] is T3, Serine/threonine-protein kinase Chk1 (Homo sapiens) (UniProt O14757).
T3 sequence (whole entry): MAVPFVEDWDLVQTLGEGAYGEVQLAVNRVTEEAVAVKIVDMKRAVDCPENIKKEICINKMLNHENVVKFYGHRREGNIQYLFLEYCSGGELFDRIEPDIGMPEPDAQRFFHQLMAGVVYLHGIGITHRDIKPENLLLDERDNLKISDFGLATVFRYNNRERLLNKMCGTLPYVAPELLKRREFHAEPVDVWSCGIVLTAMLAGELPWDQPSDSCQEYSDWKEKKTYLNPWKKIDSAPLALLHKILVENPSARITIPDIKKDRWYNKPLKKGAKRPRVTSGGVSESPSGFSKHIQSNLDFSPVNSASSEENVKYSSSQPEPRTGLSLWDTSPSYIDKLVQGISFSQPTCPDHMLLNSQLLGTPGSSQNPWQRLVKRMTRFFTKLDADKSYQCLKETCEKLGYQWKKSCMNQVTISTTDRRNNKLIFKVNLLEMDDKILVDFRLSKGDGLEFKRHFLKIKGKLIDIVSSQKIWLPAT
Nature of the experiment: Inhibition of CHK1 (unknown origin) at 10 uM.

The target in experiment [31] is RAC-alpha serine/threonine-protein kinase (Homo sapiens) (UniProt P31749). As to the kind of experiment: Inhibition of AKT1 (unknown origin) at 10 uM.

Structures are written as SMILES. Active and inactive are the calls of the source. The rule behind the calls is not given here.

T1 sequence (P45983 whole entry): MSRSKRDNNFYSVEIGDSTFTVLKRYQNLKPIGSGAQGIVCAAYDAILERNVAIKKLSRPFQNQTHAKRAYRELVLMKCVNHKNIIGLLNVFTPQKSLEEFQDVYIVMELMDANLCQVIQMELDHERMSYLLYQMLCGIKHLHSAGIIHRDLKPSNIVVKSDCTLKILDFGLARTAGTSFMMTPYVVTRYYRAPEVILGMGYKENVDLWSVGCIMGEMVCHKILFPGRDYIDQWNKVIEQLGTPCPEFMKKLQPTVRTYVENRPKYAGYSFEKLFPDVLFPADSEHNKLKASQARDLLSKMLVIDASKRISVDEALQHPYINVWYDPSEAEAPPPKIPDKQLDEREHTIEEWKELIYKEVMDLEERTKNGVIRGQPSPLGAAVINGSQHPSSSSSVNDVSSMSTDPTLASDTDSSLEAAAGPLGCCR
Platelet-derived growth factor receptor beta (Homo sapiens), sequence (P09619 whole entry): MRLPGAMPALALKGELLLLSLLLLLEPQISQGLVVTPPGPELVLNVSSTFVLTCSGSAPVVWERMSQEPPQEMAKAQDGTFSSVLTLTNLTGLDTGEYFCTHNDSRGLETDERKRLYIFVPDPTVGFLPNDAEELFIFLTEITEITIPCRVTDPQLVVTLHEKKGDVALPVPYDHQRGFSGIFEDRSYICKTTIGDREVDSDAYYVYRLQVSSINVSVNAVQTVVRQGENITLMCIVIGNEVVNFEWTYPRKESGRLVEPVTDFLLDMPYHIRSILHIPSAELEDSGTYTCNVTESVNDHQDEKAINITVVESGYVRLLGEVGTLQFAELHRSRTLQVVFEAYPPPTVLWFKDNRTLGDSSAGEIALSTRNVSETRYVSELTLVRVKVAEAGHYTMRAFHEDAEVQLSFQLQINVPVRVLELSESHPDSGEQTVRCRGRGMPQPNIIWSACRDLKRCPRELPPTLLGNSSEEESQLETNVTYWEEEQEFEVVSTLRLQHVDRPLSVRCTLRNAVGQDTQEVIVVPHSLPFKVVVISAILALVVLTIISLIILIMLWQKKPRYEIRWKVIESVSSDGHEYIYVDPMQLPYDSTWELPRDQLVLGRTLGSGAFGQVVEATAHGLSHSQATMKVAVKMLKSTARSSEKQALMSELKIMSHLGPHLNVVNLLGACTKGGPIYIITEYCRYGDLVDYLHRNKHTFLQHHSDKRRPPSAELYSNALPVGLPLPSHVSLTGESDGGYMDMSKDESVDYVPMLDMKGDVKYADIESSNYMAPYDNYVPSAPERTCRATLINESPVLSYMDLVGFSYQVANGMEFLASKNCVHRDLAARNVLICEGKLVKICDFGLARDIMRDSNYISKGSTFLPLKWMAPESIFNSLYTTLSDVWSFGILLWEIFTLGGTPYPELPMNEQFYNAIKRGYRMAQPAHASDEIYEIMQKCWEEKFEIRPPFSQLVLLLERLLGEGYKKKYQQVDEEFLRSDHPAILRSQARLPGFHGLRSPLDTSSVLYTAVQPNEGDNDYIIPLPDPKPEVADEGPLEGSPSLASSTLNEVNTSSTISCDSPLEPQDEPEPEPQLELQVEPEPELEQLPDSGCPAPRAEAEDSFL
RAC-alpha serine/threonine-protein kinase (Homo sapiens), sequence (P31749 whole entry): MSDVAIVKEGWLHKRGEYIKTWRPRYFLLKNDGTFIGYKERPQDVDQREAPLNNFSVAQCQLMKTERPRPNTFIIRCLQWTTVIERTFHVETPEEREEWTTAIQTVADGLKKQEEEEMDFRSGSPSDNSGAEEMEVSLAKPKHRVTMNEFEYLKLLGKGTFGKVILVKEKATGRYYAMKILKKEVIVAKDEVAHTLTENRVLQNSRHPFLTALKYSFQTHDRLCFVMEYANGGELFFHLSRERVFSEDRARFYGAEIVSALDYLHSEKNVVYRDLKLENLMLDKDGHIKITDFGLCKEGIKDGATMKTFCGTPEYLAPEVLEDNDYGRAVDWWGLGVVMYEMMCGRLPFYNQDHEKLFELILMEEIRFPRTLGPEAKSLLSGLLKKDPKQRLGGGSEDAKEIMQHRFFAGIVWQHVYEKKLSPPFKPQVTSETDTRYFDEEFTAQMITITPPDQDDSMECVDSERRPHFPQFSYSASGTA
Hepatocyte growth factor receptor (Homo sapiens), sequence (P08581 whole entry): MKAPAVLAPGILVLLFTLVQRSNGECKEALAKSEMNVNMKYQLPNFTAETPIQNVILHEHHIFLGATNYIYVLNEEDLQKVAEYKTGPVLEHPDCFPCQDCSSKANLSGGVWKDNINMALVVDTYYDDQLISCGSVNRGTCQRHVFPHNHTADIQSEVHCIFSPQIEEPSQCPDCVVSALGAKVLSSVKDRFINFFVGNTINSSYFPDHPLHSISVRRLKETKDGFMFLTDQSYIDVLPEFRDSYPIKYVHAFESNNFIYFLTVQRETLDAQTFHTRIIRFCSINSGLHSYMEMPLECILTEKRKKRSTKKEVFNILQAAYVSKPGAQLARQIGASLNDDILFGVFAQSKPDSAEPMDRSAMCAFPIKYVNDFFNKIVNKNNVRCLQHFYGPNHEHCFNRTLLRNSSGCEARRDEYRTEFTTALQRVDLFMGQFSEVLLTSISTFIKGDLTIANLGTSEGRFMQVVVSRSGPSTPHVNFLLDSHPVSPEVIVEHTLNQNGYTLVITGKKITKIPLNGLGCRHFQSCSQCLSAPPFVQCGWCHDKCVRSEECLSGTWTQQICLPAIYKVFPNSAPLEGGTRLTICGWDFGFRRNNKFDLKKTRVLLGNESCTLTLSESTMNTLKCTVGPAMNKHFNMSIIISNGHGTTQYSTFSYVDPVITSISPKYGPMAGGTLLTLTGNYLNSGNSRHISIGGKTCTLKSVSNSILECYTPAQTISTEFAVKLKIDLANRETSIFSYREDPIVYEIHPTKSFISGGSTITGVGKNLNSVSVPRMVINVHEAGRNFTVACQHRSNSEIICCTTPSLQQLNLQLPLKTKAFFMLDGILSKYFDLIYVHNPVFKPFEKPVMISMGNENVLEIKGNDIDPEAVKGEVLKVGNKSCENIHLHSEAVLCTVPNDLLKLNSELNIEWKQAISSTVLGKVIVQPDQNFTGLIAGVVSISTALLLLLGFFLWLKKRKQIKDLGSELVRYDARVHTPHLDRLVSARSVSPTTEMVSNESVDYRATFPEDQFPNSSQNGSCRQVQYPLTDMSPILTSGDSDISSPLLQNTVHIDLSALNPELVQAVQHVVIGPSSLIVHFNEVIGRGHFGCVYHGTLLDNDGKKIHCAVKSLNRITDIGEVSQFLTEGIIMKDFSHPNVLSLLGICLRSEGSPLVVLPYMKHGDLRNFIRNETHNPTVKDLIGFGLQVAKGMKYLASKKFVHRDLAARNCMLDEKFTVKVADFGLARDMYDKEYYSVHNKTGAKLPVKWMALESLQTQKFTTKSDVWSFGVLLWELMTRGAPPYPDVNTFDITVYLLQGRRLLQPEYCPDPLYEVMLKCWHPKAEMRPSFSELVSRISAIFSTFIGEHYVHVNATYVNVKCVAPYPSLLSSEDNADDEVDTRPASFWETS
Vascular endothelial growth factor receptor 2 (Homo sapiens), sequence (P35968 whole entry): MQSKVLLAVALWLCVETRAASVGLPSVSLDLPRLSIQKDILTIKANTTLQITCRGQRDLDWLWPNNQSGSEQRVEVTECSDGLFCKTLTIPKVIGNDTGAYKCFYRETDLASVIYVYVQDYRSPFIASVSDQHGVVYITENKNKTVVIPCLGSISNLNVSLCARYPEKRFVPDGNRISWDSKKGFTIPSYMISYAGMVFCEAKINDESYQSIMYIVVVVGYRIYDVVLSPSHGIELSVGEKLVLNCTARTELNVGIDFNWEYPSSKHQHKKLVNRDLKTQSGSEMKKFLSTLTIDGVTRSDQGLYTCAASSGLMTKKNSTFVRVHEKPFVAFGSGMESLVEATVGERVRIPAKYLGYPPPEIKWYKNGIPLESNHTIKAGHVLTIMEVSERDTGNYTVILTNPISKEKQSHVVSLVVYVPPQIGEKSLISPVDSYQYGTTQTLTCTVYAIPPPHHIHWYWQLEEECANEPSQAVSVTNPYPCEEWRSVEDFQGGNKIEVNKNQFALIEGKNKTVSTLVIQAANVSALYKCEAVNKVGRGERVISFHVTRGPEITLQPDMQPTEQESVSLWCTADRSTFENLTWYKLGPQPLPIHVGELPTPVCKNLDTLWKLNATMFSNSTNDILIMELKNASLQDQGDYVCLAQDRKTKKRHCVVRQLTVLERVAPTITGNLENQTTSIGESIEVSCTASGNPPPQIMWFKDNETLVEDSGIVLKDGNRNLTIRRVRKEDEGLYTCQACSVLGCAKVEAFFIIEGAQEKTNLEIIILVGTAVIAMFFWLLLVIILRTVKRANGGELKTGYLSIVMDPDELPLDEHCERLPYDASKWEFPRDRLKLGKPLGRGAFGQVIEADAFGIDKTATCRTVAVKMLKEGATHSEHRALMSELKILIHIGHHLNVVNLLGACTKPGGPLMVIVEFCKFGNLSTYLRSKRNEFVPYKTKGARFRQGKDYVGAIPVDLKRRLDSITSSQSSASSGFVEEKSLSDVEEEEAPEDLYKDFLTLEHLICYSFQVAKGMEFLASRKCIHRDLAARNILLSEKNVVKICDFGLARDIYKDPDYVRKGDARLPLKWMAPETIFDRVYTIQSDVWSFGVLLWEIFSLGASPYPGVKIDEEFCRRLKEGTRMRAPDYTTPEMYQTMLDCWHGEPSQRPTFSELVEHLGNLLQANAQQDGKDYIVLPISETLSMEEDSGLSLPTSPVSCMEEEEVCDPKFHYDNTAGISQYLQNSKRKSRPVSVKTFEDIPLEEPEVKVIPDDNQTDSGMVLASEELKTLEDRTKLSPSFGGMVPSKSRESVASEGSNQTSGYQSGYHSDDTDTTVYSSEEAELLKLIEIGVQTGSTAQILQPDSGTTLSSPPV
Serine/threonine-protein kinase pim-1 (Homo sapiens), sequence (P11309 whole entry, looked up): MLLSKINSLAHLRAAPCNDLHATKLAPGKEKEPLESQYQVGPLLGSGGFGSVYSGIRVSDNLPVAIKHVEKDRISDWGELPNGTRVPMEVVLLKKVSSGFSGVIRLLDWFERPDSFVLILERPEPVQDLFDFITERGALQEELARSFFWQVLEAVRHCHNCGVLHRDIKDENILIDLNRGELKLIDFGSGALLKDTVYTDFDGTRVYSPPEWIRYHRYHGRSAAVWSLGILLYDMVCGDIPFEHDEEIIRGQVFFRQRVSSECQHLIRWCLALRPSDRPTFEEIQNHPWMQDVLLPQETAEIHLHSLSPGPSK

On to `Cn1c(=O)c(Oc2ccc(F)cc2F)cc2cnc(NC3CCN(S(N)(=O)=O)CC3)nc21`, for which the inhibition in experiment [1] is 8%; in experiment [2] it was 13%; in [5], 22%; in experiment [6], 9%; in [7] it was 16%. Moreover, the Activity in [3] stood at 30.5%; in [8], 89.4%. Also, the inhibition entry in experiment [4] was “inactive”. Further, in the experiment on HEK293, the IC50 is greater than 30 µM.
On to `Cn1c(=O)c(Oc2ccc(F)cc2F)cc2cnc(NCCc3ccccn3)nc21`, for which the inhibition was 0% in experiment [9]; 8% in experiment [10]; 5% in experiment [11]; 5% in experiment [12]; 6% in [13]; 3% in experiment [14]. Further, the inhibition in [15] was found to be 3%; in experiment [16] it was 10%; in experiment [17] it was 6%; in experiment [18], 16%; in [19] it was 2%; in experiment [20], 0%. Further, the inhibition amounted to 10% in [21]; 35% in [22]; 5% in experiment [23]; 0% in experiment [24]; 4% in [25]; 3% in experiment [26]. Moreover, the inhibition in experiment [27] turned out to be 3%; in [28] it was 6%; in experiment [29], 15%; in experiment [30], 14%; in experiment [31] it was 6%. The Activity in [3] was found to be 82%; in [8], 96.4%. This molecule also yielded an IC50 in the experiment with HEK293 greater than 30 µM.
